In data set [1] the target is T1, human vasopressin V1a receptor subtype (Homo sapiens, UniProt P37288).
T1 construct: host or cells: CHO cells (pZeoSV vector for the Thibonnier line)
In words: Vasopressin binding in Chinese Hamster Ovary cell membranes expressing human vasopressin V1a subtype receptors. The following applies: 100 nM, CHO cell membranes, [3H]Manning ligand, values without parentheses. The essentials: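 Displacement of [3H]Manning ligand (8 nM working solution) from human V1a receptors in CHO cell membranes, 25–50 μg protein per well. Incubation ran 60 min at room temperature in 50 mM Tris-HCl pH 7.4 with protease inhibitors, followed by filtration and scintillation counting. Results are given as IC50 or percent inhibition.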

The term inhibition denotes the drop in the measured response relative to a control, in per cent. By melting point is commonly meant the temperature, or range, at which the solid turns liquid.

T1 sequence (P37288 whole entry): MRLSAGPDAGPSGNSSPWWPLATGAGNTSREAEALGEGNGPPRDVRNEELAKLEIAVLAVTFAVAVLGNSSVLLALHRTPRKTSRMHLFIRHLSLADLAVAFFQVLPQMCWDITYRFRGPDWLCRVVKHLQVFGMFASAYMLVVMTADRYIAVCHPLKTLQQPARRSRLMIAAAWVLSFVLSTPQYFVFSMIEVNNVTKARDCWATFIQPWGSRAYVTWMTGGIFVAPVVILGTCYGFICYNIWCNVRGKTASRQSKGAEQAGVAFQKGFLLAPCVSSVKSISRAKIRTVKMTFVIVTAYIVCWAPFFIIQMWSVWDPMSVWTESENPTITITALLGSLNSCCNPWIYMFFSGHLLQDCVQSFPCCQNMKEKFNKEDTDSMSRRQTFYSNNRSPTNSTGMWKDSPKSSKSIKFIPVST

As for `Cc1cc(C(=O)N2Cc3ccc(C(=O)N(CCCN(C)C)CCCN(C)C)n3Cc3ccccc32)ccc1-c1ccccc1C(F)(F)F` [Example 3, 10-[(2-Methyl-2′-trifluoromethyl-[1,1′-biphenyl]-4-yl)-carbonyl]-10,11-dihydro-5H-pyrrolo[2,1-c][1,4]benzodiazepine-3-carboxylic acid bis-(3-dimethylamino-propyl)-amide], the melting point lay in the range of 55 to 64 °C. Further, in data set [1], the inhibition at 0.1 µM was -8%.
